Source: the NIST ThermoML archive (doi:10.1021/je5008789)

Conditions: Liquid; for mass density: Vibrating tube method; for viscosity: Vibrating wire viscometry

CC(C)CCCC(C)CCCC(C)CCCCC(C)CCCC(C)CCCC(C)C (stereo unspecified) [2,6,10,15,19,23-hexamethyltetracosane]
Conditions | mass density [kg/m3] | viscosity [mPa·s]
338.19 K, 1050 kPa | 779.26 | 6.815
338.19 K, 21210 kPa | 792.77 | 9.666
338.2 K, 40640 kPa | 803.93 | 13.19
338.2 K, 60420 kPa | 814.29 | 17.71
338.2 K, 79830 kPa | 822.46 | 23.48
338.2 K, 100230 kPa | 831.55 | 30.94
338.2 K, 140240 kPa | 845.12 | 52.3
338.2 K, 161300 kPa | 851.46 | 68.14
338.21 K, 119820 kPa | 837.96 | 40.32
338.22 K, 940 kPa | 778.91 | 6.808
338.29 K, 1010 kPa | 779.46 | 6.83
373.12 K, 620 kPa | 756.02 | 3.122
373.12 K, 780 kPa | 756.09 | 3.125
373.12 K, 20350 kPa | 771.55 | 4.234
373.12 K, 39970 kPa | 784.5 | 5.565
373.12 K, 60030 kPa | 795.89 | 7.219
373.12 K, 80950 kPa | 806.36 | 9.293
373.12 K, 101160 kPa | 815.48 | 11.72
373.12 K, 120420 kPa | 823.57 | 14.4
373.12 K, 140640 kPa | 831.1 | 17.83
373.12 K, 159510 kPa | 837.61 | 21.73
373.12 K, 180460 kPa | 843.98 | 26.77
373.12 K, 201380 kPa | 850.63 | 32.72
388.13 K, 890 kPa | 746.65 | 2.432
388.13 K, 20290 kPa | 762.98 | 3.25
388.13 K, 80490 kPa | 799.25 | 6.828
388.13 K, 101530 kPa | 809.12 | 8.548
388.13 K, 120960 kPa | 817.16 | 10.46
388.13 K, 139900 kPa | 824.59 | 12.58
388.14 K, 1100 kPa | 746.78 | 2.436
388.14 K, 40380 kPa | 776.95 | 4.242
388.14 K, 59850 kPa | 788.53 | 5.392
388.14 K, 160800 kPa | 832.35 | 15.31
388.14 K, 180610 kPa | 838.96 | 18.4
388.14 K, 201470 kPa | 845.55 | 22.16
413.17 K, 1050 kPa | 730.56 | 1.691
413.18 K, 20110 kPa | 748.65 | 2.233
413.18 K, 40280 kPa | 763.94 | 2.885
413.18 K, 60200 kPa | 776.68 | 3.62
413.21 K, 80740 kPa | 788.16 | 4.485
413.22 K, 100350 kPa | 797.82 | 5.454
413.22 K, 120460 kPa | 806.56 | 6.574
413.24 K, 610 kPa | 730.1 | 1.68
